The target of this assay is GFPxm163 (Aequorea macrodactyla, UniProt Q8WTC8). As to the kind of experiment: fluorescence quenching titration. In kind it is binding.

Our source for the Kd values is paper PMC9645410 (Chemical Science, 2022).

Sequence of GFPxm163 (Q8WTC8 1-238): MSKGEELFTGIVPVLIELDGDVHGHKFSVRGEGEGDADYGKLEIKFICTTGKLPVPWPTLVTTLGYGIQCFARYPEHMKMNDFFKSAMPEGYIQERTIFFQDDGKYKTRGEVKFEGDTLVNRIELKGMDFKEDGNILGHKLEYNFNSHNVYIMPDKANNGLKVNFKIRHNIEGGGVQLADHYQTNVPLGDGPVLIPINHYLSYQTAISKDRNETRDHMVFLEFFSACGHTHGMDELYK

Broadly, the Kd is a measure of binding affinity in units of concentration. The compound `Br` [bromide] yielded a Kd of 46.2 ± 5.3 mM. As for `I` [iodide], the figure is 6.4 ± 0.1 mM; as for `O=[N+]([O-])O` [nitrate], 24.1 ± 0.8 mM.
